Test system: BaF3-FL KIT D816V or BaF3-FL KIT V560G/D816V cell line
Test: Cell-based assays of c-Kit mutant kinase activity (cell growth, ATPlite)
Settings: at least one of the c-kit cell assays of Example 26
Method: The c-Kit mutant D816V inhibitors were assessed using an engineered BaF3-FL KIT D816V or BaF3-FL KIT V560G/D816V cell line. The BaF3-FL KIT D816V cell lines were created by introduction of KIT mutant (D816V) full length constructs that render the cells dependent on the introduced kinase for growth. Inhibitors of c-Kit mutant D816V kinase reduce or eliminate the mediated c-kit mutant D816V kinase activation, resulting in reduced cell proliferation of the BaF3-FL Kit mutant D816V cells. This inhibition is measured by the effect of compound concentration on cell growth to assess IC50 values. BaF3-FL KIT D816V cells were seeded at 1×10^4 cells per well of a 96 well cell culture plate in 50 μl of cell culture medium of RPMI Medium 1X (Invitrogen #11875-093) supplemented with 10% FBS (Invitrogen #10438), 1% Non Essential Amino Acids(Invitrogen #11140), 1% Penicillin Streptomycin (Invitrogen #15140), 1% L-Glutamine (Invitrogen #25030-081). Compounds were dissolved in DMSO at a concentration of 5 mM and were serially diluted 1:3 for a total of eight points and added to the cells to a final maximum concentration of 10 μM in 100 μl cell culture medium (final concentration 0.2% DMSO). Cells were also treated with Dasatinib as a positive control. The cells were incubated at 37° C., 5% CO2 for three days. ATPlite Buffer (Perkin Elmer #6016739) and substrate were equilibrated to room temperature, and enzyme/substrate Recombinant Firefly Luciferase/D-Luciferin was reconstituted. The cell plates were equilibrated to room temperature for 30 minutes, then lysed by addition of 25 uL per well of the ATPlite Reagent. The plate was mixed for 5 minutes on a plate shaker to lyse the cells. The plates were read on a Tecan Safire using Luminescence protocol modified to read 0.1 s per well. The luminescence reading assesses the ATP content, which correlates directly with cell number such that the reading as a function of compound concentration is used to determine the IC50 value.
Plasmids P75635 and P75565 were engineered for mammalian cell expression. In both plasmids, full-length human v-kit Hardy-Zuckerman 4 feline sarcoma viral oncogene homolog gene (NCBI accession NM_000222, KIT, residues M1-V976) was subcloned into the pCI-Neo vector (Promega E1841). Plasmid P75635 contains the mutation of residue Aspartic acid 816 to Valine. Plasmid P75565 contains the double mutation of residues Valine 560 to Glycine and Aspartic acid 816 to Valine. The pCI-neo Mammalian Expression Vector carries the human cytomegalovirus (CMV) immediate-early enhancer/promoter region to promote constitutive expression of KIT and contains the neomycin phosphotransferase gene, a selectable marker.
It is understood that the results of these assays may vary as assay conditions are varied. Inhibition levels determined under the conditions described herein represent a relative activity for the compounds tested under the specific conditions employed. The cell based assays are likely to show variability due to the complexity of the system and the sensitivity thereof to any changes in the assay conditions. […] In some instances, the compounds were not tested in all of the assays, or assay results were not valid.

| IC50 | Compound |
| --- | --- |
| < 10 µM | Cc1n[nH]c(C(=O)Nc2cnc3[nH]c(-c4ccc(C#N)cc4)cc3c2)c1C [P-2092, N-[2-(4-cyanophenyl)-1H-pyrrolo[2,3-b]pyridin-5-yl]-3,4-dimethyl-1H-pyrazole-5-carboxamide] |
| < 10 µM | Cc1n[nH]c(C(=O)Nc2cnc3[nH]c(-c4ccccc4F)cc3c2)c1C [P-2093, N-[2-(2-fluorophenyl)-1H-pyrrolo[2,3-b]pyridin-5-yl]-3,4-dimethyl-1H-pyrazole-5-carboxamide] |
| < 10 µM | Cc1n[nH]c(C(=O)Nc2cnc3[nH]c(-c4cccc(F)c4)cc3c2)c1C [P-2094, N-[2-(3-fluorophenyl)-1H-pyrrolo[2,3-b]pyridin-5-yl]-3,4-dimethyl-1H-pyrazole-5-carboxamide] |
| < 10 µM | Cc1n[nH]c(C(=O)Nc2cnc3[nH]c(-c4cccc(Cl)c4)cc3c2)c1C [P-2095, N-[2-(3-chlorophenyl)-1H-pyrrolo[2,3-b]pyridin-5-yl]-3,4-dimethyl-1H-pyrazole-5-carboxamide] |
| < 10 µM | Cc1n[nH]c(C(=O)Nc2cnc3[nH]c(-c4ccccc4Cl)cc3c2)c1C [P-2096, N-[2-(2-chlorophenyl)-1H-pyrrolo[2,3-b]pyridin-5-yl]-3,4-dimethyl-1H-pyrazole-5-carboxamide] |
| < 10 µM | Cc1ccccc1-c1cc2cc(NC(=O)c3[nH]nc(C)c3C)cnc2[nH]1 [P-2097, 3,4-dimethyl-N-[2-(o-tolyl)-1H-pyrrolo[2,3-b]pyridin-5-yl]-1H-pyrazole-5-carboxamide] |
| < 10 µM | COc1cccc(-c2cc3cc(NC(=O)c4[nH]nc(C)c4C)cnc3[nH]2)c1 [P-2098, N-[2-(3-methoxyphenyl)-1H-pyrrolo[2,3-b]pyridin-5-yl]-3,4-dimethyl-1H-pyrazole-5-carboxamide] |
| < 10 µM | COc1ccc(-c2cc3cc(NC(=O)c4[nH]nc(C)c4C)cnc3[nH]2)cc1 [P-2099, N-[2-(4-methoxyphenyl)-1H-pyrrolo[2,3-b]pyridin-5-yl]-3,4-dimethyl-1H-pyrazole-5-carboxamide] |
| < 10 µM | CC(=O)Nc1cccc(-c2cc3cc(NC(=O)c4[nH]nc(C)c4C)cnc3[nH]2)c1 [P-2100, N-[2-(3-acetamidophenyl)-1H-pyrrolo[2,3-b]pyridin-5-yl]-3,4-dimethyl-1H-pyrazole-5-carboxamide] |
| < 10 µM | Cc1n[nH]c(C(=O)Nc2cnc3[nH]c(-c4ccc(C(=O)N5CCCC5)cc4)cc3c2)c1C [P-2101, 3,4-dimethyl-N-[2-[4-(pyrrolidine-1-carbonyl)phenyl]-1H-pyrrolo[2,3-b]pyridin-5-yl]-1H-pyrazole-5-carboxamide] |
| < 10 µM | COCCCOc1ccc(-c2cc3cc(NC(=O)c4[nH]nc(C)c4C)cnc3[nH]2)cc1 [P-2102, N-[2-[4-(3-methoxypropoxy)phenyl]-1H-pyrrolo[2,3-b]pyridin-5-yl]-3,4-dimethyl-1H-pyrazole-5-carboxamide] |
| < 10 µM | Cc1n[nH]c(C(=O)Nc2cnc3[nH]c(-c4ccc(N5CCN(C)CC5)cc4)cc3c2)c1C [P-2104, 3,4-dimethyl-N-[2-[4-(4-methylpiperazin-1-yl)phenyl]-1H-pyrrolo[2,3-b]pyridin-5-yl]-1H-pyrazole-5-carboxamide] |
| < 10 µM | Cc1n[nH]c(C(=O)Nc2cnc3[nH]c(-c4ccc(C(=O)N5CCSCC5)cc4)cc3c2)c1C [P-2105, 3,4-dimethyl-N-[2-[4-(thiomorpholine-4-carbonyl)phenyl]-1H-pyrrolo[2,3-b]pyridin-5-yl]-1H-pyrazole-5-carboxamide] |

The remaining lines, values behind:

| Compound | IC50 |
| --- | --- |
| OC(c1cccnc1)c1cnc2[nH]c(-c3ccccc3)cc2c1 (centres unmarked) [P-2001, (2-phenyl-1H-pyrrolo[2,3-b]pyridin-5-yl)-(3-pyridyl)methanol] | < 10 µM |
| O=C(c1cccnc1)c1cnc2[nH]c(-c3ccccc3)cc2c1 [P-2002, (2-phenyl-1H-pyrrolo[2,3-b]pyridin-5-yl)-(3-pyridyl)methanone] | < 10 µM |
| O=C(Nc1cc[nH]n1)c1cnc2[nH]c(-c3ccccc3)cc2c1 [P-2004, 2-phenyl-N-(1H-pyrazol-3-yl)-1H-pyrrolo[2,3-b]pyridine-5-carboxamide] | < 10 µM |
| CCOC(=O)CCNC(=O)Nc1cnc2[nH]c(-c3ccccc3)cc2c1 [P-2006] | < 10 µM |
| Cc1c(-c2ccccc2)n[nH]c1C(=O)Nc1cnc2[nH]c(-c3ccccc3)cc2c1 [P-2008, 4-methyl-3-phenyl-N-(2-phenyl-1H-pyrrolo[2,3-b]pyridin-5-yl)-1H-pyrazole-5-carboxamide] | < 10 µM |
| O=C(Nc1cnc2[nH]c(-c3ccccc3)cc2c1)c1cccnn1 [P-2014, N-(2-phenyl-1H-pyrrolo[2,3-b]pyridin-5-yl)pyridazine-3-carboxamide] | < 10 µM |
| Cc1cccc(Cl)c1C(=O)Nc1cnc2[nH]c(-c3ccc(F)cc3)cc2c1 [P-2022, 2-chloro-N-[2-(4-fluorophenyl)-1H-pyrrolo[2,3-b]pyridin-5-yl]-6-methyl-benzamide] | < 10 µM |
| CCc1n[nH]c(C(=O)Nc2cnc3[nH]c(-c4ccc(F)cc4)cc3c2)c1C [P-2028, 3-ethyl-N-[2-(4-fluorophenyl)-1H-pyrrolo[2,3-b]pyridin-5-yl]-4-methyl-1H-pyrazole-5-carboxamide] | < 10 µM |
| O=C(Nc1cnc2[nH]c(-c3ccc(F)cc3)cc2c1)c1ncn[nH]1 [P-2035, N-[2-(4-fluorophenyl)-1H-pyrrolo[2,3-b]pyridin-5-yl]-1H-1,2,4-triazole-5-carboxamide] | < 10 µM |
| Cc1n[nH]c(C(=O)Nc2cnc3[nH]c(-c4ccnc(N5CCOCC5)c4F)cc3c2)c1C [P-2082, N-[2-(3-fluoro-2-morpholino-4-pyridyl)-1H-pyrrolo[2,3-b]pyridin-5-yl]-3,4-dimethyl-1H-pyrazole-5-carboxamide] | < 10 µM |
| Cc1n[nH]c(C(=O)Nc2cnc3[nH]c(-c4cnn(CC(C)C)c4)cc3c2)c1C [P-2083, N-[2-(1-isobutylpyrazol-4-yl)-1H-pyrrolo[2,3-b]pyridin-5-yl]-3,4-dimethyl-1H-pyrazole-5-carboxamide] | < 10 µM |
| Cc1n[nH]c(C(=O)Nc2cnc3[nH]c(-c4cnn(C)c4C)cc3c2)c1C [P-2084, N-[2-(1,5-dimethylpyrazol-4-yl)-1H-pyrrolo[2,3-b]pyridin-5-yl]-3,4-dimethyl-1H-pyrazole-5-carboxamide] | < 10 µM |
| Cc1n[nH]c(C(=O)Nc2cnc3[nH]c(-c4ccc(C(=O)N(C)C)cc4)cc3c2)c1C [P-2085, N-[2-[4-(dimethylcarbamoyl)phenyl]-1H-pyrrolo[2,3-b]pyridin-5-yl]-3,4-dimethyl-1H-pyrazole-5-carboxamide] | < 10 µM |
| Cc1n[nH]c(C(=O)Nc2cnc3[nH]c(-c4cccc(OC(F)(F)F)c4)cc3c2)c1C [P-2086, 3,4-dimethyl-N-[2-[3-(trifluoromethoxy)phenyl]-1H-pyrrolo[2,3-b]pyridin-5-yl]-1H-pyrazole-5-carboxamide] | < 10 µM |
| Cc1n[nH]c(C(=O)Nc2cnc3[nH]c(-c4cccc(C(=O)N(C)C)c4)cc3c2)c1C [P-2087, N-[2-[3-(dimethylcarbamoyl)phenyl]-1H-pyrrolo[2,3-b]pyridin-5-yl]-3,4-dimethyl-1H-pyrazole-5-carboxamide] | < 10 µM |
| Cc1n[nH]c(C(=O)Nc2cnc3[nH]c(-c4cccnc4)cc3c2)c1C [P-2088, 3,4-dimethyl-N-[2-(3-pyridyl)-1H-pyrrolo[2,3-b]pyridin-5-yl]-1H-pyrazole-5-carboxamide] | < 10 µM |
| Cc1n[nH]c(C(=O)Nc2cnc3[nH]c(-c4ccc(N5CCOCC5)nc4)cc3c2)c1C [P-2089, 3,4-dimethyl-N-[2-(6-morpholino-3-pyridyl)-1H-pyrrolo[2,3-b]pyridin-5-yl]-1H-pyrazole-5-carboxamide] | < 10 µM |
| COc1ccc(-c2cc3cc(NC(=O)c4[nH]nc(C)c4C)cnc3[nH]2)cn1 [P-2090, N-[2-(6-methoxy-3-pyridyl)-1H-pyrrolo[2,3-b]pyridin-5-yl]-3,4-dimethyl-1H-pyrazole-5-carboxamide] | < 10 µM |
| Cc1ncc(-c2cc3cc(NC(=O)c4[nH]nc(C)c4C)cnc3[nH]2)s1 [P-2091, 3,4-dimethyl-N-[2-(2-methylthiazol-5-yl)-1H-pyrrolo[2,3-b]pyridin-5-yl]-1H-pyrazole-5-carboxamide] | < 10 µM |

Reference: US10301280B2 (Plexxikon Inc., priority 2012, dated 2019)
